Here are results for 31 compounds from patent US11377425B1, “Small molecule modulators of IL-17” (LEO Pharma A/S, priority 2018, dated 2022).

This test has as its target T1, human IL-17AA (Homo sapiens, UniProt Q16552).
T1 construct: host or cells: HEK (human embryonic kidney) cells
T1 sequence (Q16552 24-155): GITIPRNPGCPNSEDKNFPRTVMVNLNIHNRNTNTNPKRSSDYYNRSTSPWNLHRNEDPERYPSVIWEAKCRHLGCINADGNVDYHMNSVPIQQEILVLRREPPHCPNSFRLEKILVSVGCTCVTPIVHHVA
Briefly: IL-8 release assay in human epithelial keratinocytes adult (HEKa). It counts as cell-based. Conditions: HEKa cells, 3 ng/mL HEK-human IL-17AA + 10 ng/mL human TNFalpha; read-out: Rel EC50 IL-8 release assay. The procedure, abridged:
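Adult human epidermal keratinocytes stimulated 68-72 h at 37 °C with 3 ng/mL HEK-derived human IL-17AA plus 10 ng/mL TNF-alpha (final) in the presence of compound; TNF-alpha alone defines 100% inhibition. Secreted IL-8 measured by HTRF as percent of controls; relative IC50/Emax from four-parameter fit (r^2>0.9), cytotoxicity by PrestoBlue.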

A word on the EC50: it is the concentration needed to bring the measured effect to its halfway point.

Consider `Cc1n[nH]c(C)c1-c1ccc(NC(=O)[C@@H](NC(=O)c2ccnn2C)[C@H]2CCCc3ccc(Br)cc32)cc1` [Example 6, N-[(1S)-1-[(1S)-7-bromotetralin-1-yl]-2-[4 (3,5-dimethyl-1H-pyrazol-4-yl)anilino]-2-oxo-ethyl]-2-methyl-pyrazole-3-carboxamide], for which the half-maximal effective concentration (EC50) is below 100 nM.

Consider `Cc1n[nH]c(C)c1-c1ccc(NC(=O)[C@@H](NC(=O)c2ccnn2C)[C@H]2CCCCC(F)(F)C2)cc1` [Example 7, N-[(1S)-1-[(1S)-3,3-difluorocycloheptyl]-2-[4-(3,5-dimethyl-1H-pyrazol-4-yl)anilino]-2-oxo-ethyl]-2-methyl-pyrazole-3-carboxamide], for which the concentration giving a half-maximal response (EC50) lay within 100 to 1000 nM.

With `Cc1n[nH]c(C)c1-c1ccc(NC(=O)[C@@H](NC(=O)c2ccnn2C(C)(C)C)C2CCCCC2)cc1` [Example 8, 2-tert-butyl-N-[(1S)-1-cyclohexyl-2-[4-(3,5-dimethyl-1H-pyrazol-4-yl)anilino]-2-oxo-ethyl]pyrazole-3-carboxamide], the EC50 was above 1000 nM.

As for `CCn1nccc1C(=O)N[C@H](C(=O)Nc1ccc(-c2c(C)n[nH]c2C)cc1)C1CCCCC1` [Example 9, N-[(1S)-1-cyclohexyl-2-[4-(3,5-dimethyl-1H-pyrazol-4-yl)anilino]-2-oxo-ethyl]-2-ethyl-pyrazole-3-carboxamide], the EC50 was below 100 nM.

As for `Cc1n[nH]c(C)c1-c1ccc(NC(=O)[C@@H](NC(=O)c2ccnn2C(C)C)C2CCCCC2)cc1` [Example 10, N-[(1S)-1-cyclohexyl-2-[4-(3,5-dimethyl-1H-pyrazol-4-yl)anilino]-2-oxo-ethyl]-2-isopropyl-pyrazole-3-carboxamide], the half-maximal effective concentration (EC50) is below 100 nM.

Turning to `Cc1n[nH]c(C)c1-c1ccc(NC(=O)[C@@H](NC(=O)c2ccnn2C)C2CCC(F)(F)CC2)cc1` [Example 11, N-[(1S)-1-(4,4-difluorocyclohexyl)-2-[4-(3,5-dimethyl-1H-pyrazol-4-yl)anilino]-2-oxo-ethyl]-2-methyl-pyrazole-3-carboxamide], the half-maximal effective concentration (EC50) lay in the range of 100 to 1000 nM.

Consider `Cc1n[nH]c(C)c1-c1ccc(NC(=O)[C@@H](NC(=O)c2ccnn2C(C)C)C2CCC(F)(F)CC2)cc1` [Example 12, N-[(1S)-1-(4,4-difluorocyclohexyl)-2-[4-(3,5-dimethyl-1H-pyrazol-4-yl)anilino]-2-oxo-ethyl]-2-isopropyl-pyrazole-3-carboxamide], for which the EC50 was below 100 nM.

Take `Cc1n[nH]c(C)c1-c1ccc(NC(=O)[C@@H](NC(=O)c2ccnn2C)C(C2CCC2)C2CCC2)cc1` [Example 13, N-[(1S)-1-[di(cyclobutyl)methyl]-2-[4-(3,5-dimethyl-1H-pyrazol-4-yl)anilino]-2-oxo-ethyl]-2-methyl-pyrazole-3-carboxamide]: the concentration giving a half-maximal response (EC50) was below 100 nM.

Turning to `Cc1n[nH]c(C)c1-c1ccc(NC(=O)[C@H](CC2CCCCC2)NC(=O)c2ccnn2C)cc1` [Example 15, N-[(1S)-1-(cyclohexylmethyl)-2-[4-(3,5-dimethyl-1H-pyrazol-4-yl)anilino]-2-oxo-ethyl] 2-methyl-pyrazole-3-carboxamide], the EC50 is 100 to 1000 nM.

In the case of `CCn1nccc1C(=O)N[C@@H](CC1CCCCC1)C(=O)Nc1ccc(-c2c(C)n[nH]c2C)cc1` [Example 16, N-[(1S)-1-(cyclohexylmethyl)-2-[4-(3,5-dimethyl-1H-pyrazol-4-yl)anilino]-2-oxo-ethyl]-2-ethyl-pyrazole-3-carboxamide], the 50% effective concentration (EC50) was in the range of 100 to 1000 nM.

`Cc1n[nH]c(C)c1-c1ccc(NC(=O)[C@H](CC2CCCCC2)NC(=O)c2ccnn2C(C)C)cc1` [Example 17, N-[(1S)-1-(cyclohexylmethyl)-2-[4-(3,5-dimethyl-1H-pyrazol-4-yl)anilino]-2-oxo-ethyl]-2-isopropyl-pyrazole-3-carboxamide]: the EC50 fell in the range of 100 to 1000 nM.

As for `CCn1nccc1C(=O)N[C@H](C(=O)Nc1ccc(-c2c(C)n[nH]c2C)cc1)C1CCC(F)(F)CC1` [Example 18, N-[(1S)-1-(4,4-difluorocyclohexyl)-2-[4-(3,5-dimethyl-1H-pyrazol-4-yl)anilino]-2-oxo-ethyl]-2-ethyl-pyrazole-3-carboxamide], the EC50 fell in the range of 100 to 1000 nM.

As for `Cc1n[nH]c(C)c1-c1ccc(NC(=O)[C@@H](NC(=O)c2ccnn2C)[C@H]2CCCC(F)(F)C2)cc1` [Example 19, N-[(1S)-1-[(1S)-3,3-difluorocyclohexyl]-2-[4-(3,5-dimethyl-1H-pyrazol-4-yl)anilino]-2-oxo-ethyl]-2-methyl-pyrazole-3-carboxamide], the concentration giving a half-maximal response (EC50) was 100 to 1000 nM.

On to `CCn1nccc1C(=O)N[C@H](C(=O)Nc1ccc(-c2c(C)n[nH]c2C)cc1)[C@H]1CCCC(F)(F)C1` [Example 22, N-[(1S)-1-[(1S)-3,3-difluorocyclohexyl]-2-[4-(3,5-dimethyl-1H-pyrazol-4-yl)anilino]-2-oxo-ethyl]-2-ethyl-pyrazole-3-carboxamide], for which the EC50 was 100 to 1000 nM.

On to `Cc1n[nH]c(C)c1-c1ccc(NC(=O)[C@@H](NC(=O)c2ccnn2C(C)C)[C@H]2CCCC(F)(F)C2)cc1` [Example 23, N-[(1S)-1-[(1S)-3,3-difluorocyclohexyl]-2-[4-(3,5-dimethyl-1H-pyrazol-4-yl)anilino]-2-oxo-ethyl]-2-isopropyl-pyrazole-3-carboxamide], for which the 50% effective concentration (EC50) was below 100 nM.

On to `Cc1n[nH]c(C)c1-c1ccc(NC(=O)[C@H](Cc2ccccc2Cl)NC(=O)c2ccnn2C(C)C)cc1` [Example 24], for which the concentration for a half-maximal effect (EC50) lay in the range of 100 to 1000 nM.

Consider `Cc1n[nH]c(C)c1-c1ccc(NC(=O)[C@H](Cc2ccccc2Cl)NC(=O)c2ccnn2C)cc1` [Example 25], for which the EC50 was above 1000 nM.

For the compound `Cc1n[nH]c(C)c1-c1ccc(NC(=O)[C@@H](NC(=O)c2ccnn2C2CC2)C2CCCCC2)cc1` [Example 27, N-[(1S)-1-cyclohexyl-2-[4-(3,5-dimethyl-1H-pyrazol-4-yl)anilino]-2-oxo-ethyl]-2-cyclopropyl-pyrazole-3-carboxamide], the EC50 fell in the range of 100 to 1000 nM.

Consider `Cc1n[nH]c(C)c1-c1ccc(NC(=O)[C@@H](NC(=O)c2ccnn2C(F)F)C2CCCCC2)cc1` [Example 28, N-[(1S)-1-cyclohexyl-2-[4-(3,5-dimethyl-1H-pyrazol-4-yl)anilino]-2-oxo-ethyl]-2-(difluoromethyl)pyrazole-3-carboxamide], for which the half-maximal effective concentration (EC50) was in the range of 100 to 1000 nM.

For `Cc1n[nH]c(C)c1-c1ccc(NC(=O)[C@@H](NC(=O)c2ccnn2CC(F)(F)F)C2CCCCC2)cc1` [Example 29], the half-maximal effective concentration (EC50) was 100 to 1000 nM.

In the case of `Cc1n[nH]c(C)c1-c1ccc(NC(=O)C(NC(=O)c2ccnn2C)C(C2CC2)C2CC2)cc1` (stereo not shown) [Example 30, N-[1-(dicyclopropylmethyl)-2-[4-(3,5-dimethyl-1 pyrazol-4-yl)anilino]-2-oxo-ethyl]-2-methyl-pyrazole-3-carboxamide], the EC50 fell in the range of 100 to 1000 nM.

For the compound `Cc1n[nH]c(C)c1-c1ccc(NC(=O)[C@@H](NC(=O)c2ccnn2C)[C@H]2CCOc3ccccc32)cc1` [Example 34, N-[(1S)-1-[(4S)-chroman-4-yl]-2-[4-(3,5-dimethyl-1H-pyrazol-4-yl)anilino]-2-oxo-ethyl]-2-methyl-pyrazole-3-carboxamide], the concentration giving a half-maximal response (EC50) was 100 to 1000 nM.

As to `CCn1nccc1C(=O)N[C@H](C(=O)Nc1ccc(-c2c(C)n[nH]c2C)cc1)C(C1CCC1)C1CCC1` [Example 36], the 50% effective concentration (EC50) was below 100 nM.

As for `Cc1n[nH]c(C)c1-c1ccc(NC(=O)[C@@H](NC(=O)c2ccnn2C(C)C)C(C2CCC2)C2CCC2)cc1` [Example 39], the half-maximal effective concentration (EC50) was below 100 nM.

On to `Cc1n[nH]c(C)c1-c1ccc(NC(=O)[C@@H](NC(=O)c2ccnn2C(C)C)[C@H]2CCCC3(CC3)C2)cc1` [Example 41, N-[(1S)-2-[4-(3,5-dimethyl-1H-pyrazol-4-yl)anilino]-2-oxo-1-[(7S)-spiro[2.5]octan-7-yl]ethyl]-2-isopropyl-pyrazole-3-carboxamide], for which the EC50 is below 100 nM.

Take `Cc1n[nH]c(C)c1-c1ccc(NC(=O)[C@@H](NC(=O)c2ccnn2C)C(C)C)cc1` [Example 42, N-[(1S)-1-[[4-(3,5-dimethyl-1H-pyrazol-4-yl)phenyl]carbamoyl]-2-methyl-propyl]-2-methyl-pyrazole-3-carboxamide; 2,2,2-trifluoroacetic acid]: the EC50 was above 1000 nM.

As for `CC[C@H](C)[C@H](NC(=O)c1ccnn1C)C(=O)Nc1ccc(-c2c(C)n[nH]c2C)cc1` [Example 43, N-[(1S,2S)-1-[[4-(3,5-dimethyl-1H-pyrazol-4-yl)phenyl]carbamoyl]-2-methyl-butyl]-2-methyl-pyrazole-3-carboxamide], the EC50 was in the range of 100 to 1000 nM.

For the compound `Cc1n[nH]c(C)c1-c1ccc(NC(=O)[C@H](Cc2ccccc2)NC(=O)c2ccnn2C)cc1` [Example 44, N-[(1S)-1-benzyl-2[4-(3,5-dimethyl-1H-pyrazol-4-yl)anilino]-2-oxo-ethyl]-2-methyl-pyrazole-3-carboxamide], the EC50 is above 1000 nM.

Regarding `Cc1n[nH]c(C)c1-c1ccc(NC(=O)[C@H](Cc2ccc(O)cc2)NC(=O)c2ccnn2C)cc1` [Example 45, N-[(1S)-2-[4-(3,5-dimethyl-1H-pyrazol-4-yl)anilino]-1-[(4-hydroxyphenyl)methyl]-2-oxo-ethyl]-2-methyl-pyrazole-3-carboxamide], the EC50 is above 1000 nM.

Take `Cc1n[nH]c(C)c1-c1ccc(NC(=O)[C@@H](NC(=O)c2ccnn2CCO)C2CCCCC2)cc1` [Example 46, N-[(1S)-1-cyclohexyl-2-[4-(3,5-dimethyl-1H-pyrazol-4-yl)anilino]-2-oxo-ethyl]-2-(2-hydroxyethyl)pyrazole-3-carboxamide]: the EC50 fell in the range of 100 to 1000 nM.

Regarding `Cc1n[nH]c(C)c1-c1ccc(NC(=O)[C@@H](NC(=O)c2ccnn2C(C)C)[C@H]2CCOc3ccccc32)cc1` [Example 47, N-[(1S)-1-[(4S)-chroman-4-yl]-2-[4-(3,5-dimethyl-1H-pyrazo1-4-yl)anilino]-2-oxo-ethyl]-2-isopropyl-pyrazole-3-carboxamide], the 50% effective concentration (EC50) was below 100 nM.
